Data from paper PMC3612106, “Metabolism of BYZX in Human Liver Microsomes and Cytosol: Identification of the Metabolites and Metabolic Pathways of BYZX” (PLoS ONE, 2013).
Where two headings read alike, the source gives them in different places.

Tests used:
pooled HLMs = test: Initial estimation of metabolism enzymes in pooled HLMs; assay type: in vitro ADME, human; details: 5 mM ABT preincubated 30 min, 0.4 mg/mL pooled HLMs, 20 µM BYZX
Protocol: Initial estimation of the main metabolic pathway in HLMs was performed using specific inhibitors, or by altering experimental conditions, to identify CYP and non-CYP metabolic pathway. Three groups of incubation of BYZX with pooled HLMs under different additive processes were carried out in parallel to identify whether the metabolites produced were mediated by CYPs or not. In Group I, the incubation mixture including 0.4 mg/mL pooled HLMs protein, 4 µL of NADP/NADPH solution (0.026 M NADP and 0.012 M NADPH in 1% NaHCO3 solution) and 5 mM 1-aminobenzotriazole (ABT, 1 M dissolved in dimethyl sulfoxide, DMSO) were preincubated at 37°C for 30 min, and then 20 µM BYZX was added into the incubation system (n = 2). In Group II, the incubation mixture including 0.4 mg/mL pooled HLMs protein were preincubated at 45°C for 10 min to abolish the activities of the flavin-containing monooxygenases (FMOs), and then 20 µM BYZX was added and precincubated at 37°C for 5 min, and then 4 µL of NADP/NADPH solution was added to initiate the reaction (n = 2). In Group III, the incubation mixture including 0.4 mg/mL pooled HLMs protein and 20 µM BYZX were preincubated at 37°C for 5 min, and then 4 µL of NADP/NADPH solution or […] NaHCO3 solution were added to initiate the reaction (n = 2). […]

[1] = test system: formation of M2 from BYZX in HLMs; test: Inhibition of BYZX hydrogenation in HLMs; assay type: in vitro ADME, human; details: 20 µM BYZX
Protocol: (§1) Some reductase inhibitors and substrate were used to inhibit the hydrogenate reaction of BYZX. 20 µM BYZX was incubated with 100 µM dicoumarol in human liver cytosol and was incubated with 100 µM benzylideneacetone and with 20 µM finasteride in HLMs, respectively.

[2] = test system: formation of M2 from BYZX in human liver cytosol; test: in vitro; assay type: in vitro ADME; details: 100 µM inhibitor, 20 µM BYZX, human liver cytosol (Fig. 6B)
Protocol: as §1

[3] = test system: reductase-mediated hydrogenation of BYZX (formation of M2); test: in vitro; assay type: in vitro ADME, human; details: human
Protocol: as §1

[4] = Metabolism and kinetics in pooled HLMs; assay type: in vitro ADME, human; details: for K m of N-des-ethylation: HLMs 0.4 mg/mL; for microsomal CLint: pooled human liver microsomes
Protocol: BYZX (20 µM) was incubated in a 200 µL of reaction buffer solution containing 0.1 M Tris-HCl (pH 7.4), 0.15 M MgCl2, NADPH-generating system (9.7 mM dl-isocitrate trisodium and 0.07 unit of isocitrate dehydrogenase), and 1 mg/mL pooled HLMs. The incubation mixture was preincubated at 37°C for 5 min, and then the reaction was initiated by adding 4 µL of NADP/NADPH solution (0.026 M NADP and 0.012 M NADPH in 1% NaHCO3 solution). After incubation at 37°C for 120 min, 200 µL of cold methanol was added to terminate the reaction and precipitate the protein. The mixture was vortexed for 1 min and centrifuged at 13 000 rpm for 15 min. 7 µL of the supernatant was injected into the LC system.
(§2) Moreover, very small amount of M3 was isolated from pooled incubation samples by HPLC-UV on an ODS column with a gradient solvent system consisting of methanol and 10 mM ammonium formate in water. Then, M3 were incubated in pooled HLMs, recombinant CYPs, and human cytosol to confirm the further metabolism.
(§3) The kinetics studies were performed using human liver cytosol, HLMs, and recombinant human CYP3A4 and CYP2C8. Before the kinetic study, the incubation time and the enzyme concentration for linear formation of metabolites were optimized. The concentrations of cytosol, HLMs, CYP3A4 and CYP2C8 protein were 0.4, 0.4, 0.04 and 0.1 mg/mL, respectively. The incubation times of HLMs, CYP3A4 and CYP2C8 were […], respectively. […] The following equation was applied, assuming a Michaelis–Menten equation: V = V max× [S]/(K m+[S]), where V is the rate of reaction, V max is the maximum velocity, K m is the Michaelis constant (substrate concentration at half of V max), and [S] is the substrate concentration. Eadie-Hofstee plot was used to confirm allosteric kinetics.

CYP2C8 = target: T1, CYP2C8 (Homo sapiens, UniProt P10632); test: Incubation and kinetics with recombinant human CYP2C8; assay type: in vitro ADME; details: for K m of N-des-ethylation: recombinant CYP2C8 0.1 mg/mL
T1 construct: purchased BD Gentest (Woburn, MA); host or cells: baculovirus-insect cells
T1 sequence (P10632 1-490): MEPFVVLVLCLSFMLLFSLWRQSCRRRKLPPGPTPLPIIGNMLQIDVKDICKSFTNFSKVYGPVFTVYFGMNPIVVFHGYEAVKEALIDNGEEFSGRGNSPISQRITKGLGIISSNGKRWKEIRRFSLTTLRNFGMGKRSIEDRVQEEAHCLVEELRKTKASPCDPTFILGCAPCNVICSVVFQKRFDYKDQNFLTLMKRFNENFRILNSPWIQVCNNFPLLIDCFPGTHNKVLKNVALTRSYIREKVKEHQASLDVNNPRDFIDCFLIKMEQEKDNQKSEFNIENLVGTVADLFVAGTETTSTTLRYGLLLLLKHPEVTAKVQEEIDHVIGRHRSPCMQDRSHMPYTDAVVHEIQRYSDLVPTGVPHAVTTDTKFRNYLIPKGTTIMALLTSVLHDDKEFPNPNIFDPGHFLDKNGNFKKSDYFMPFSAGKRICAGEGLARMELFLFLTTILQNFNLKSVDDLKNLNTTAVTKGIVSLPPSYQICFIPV
Protocol: (§4) Commercial baculovirus-insect cell-expressed human CYPs (0.1 mg/mL) including CYP1A2, 2A6, 2B6, 2C8, 2C9, 2C19, 2D6, 2E1 and 3A4 were incubated with 20 µM BYZX and 3 µM M2 in the aforementioned method respectively. After 40 min 1 volume of ice cold methanol was added to terminate the reaction. The mixture was vortexed for 1 min and centrifuged at 13 000 rpm for 15 min. 7 µL of the supernatant was injected into the LC-MS system for analysis.
as §3

[5] = Metabolism and kinetics in human liver cytosol; assay type: in vitro ADME
Protocol: as §2, §3
Estimation of the kinetics for BYZX hydrogenation in human liver cytosol was similar to what described above. BYZX in a series of concentration (5.0, 10.0, 20.0, 40.0, 100.0, 150.0, 200.0 µM) were incubated with 0.2 mg/mL of cytosol protein for 20 min at 37°C, and the different formation rates of M2 were assayed for estimating the kinetic parameters.

[6] = target: T2, NADPH-CYP450 oxidoreductase (OR) and cytochrome b5 (cyt b5) (Homo sapiens, UniProt P00167+P16435); test: Incubation with recombinant OR and cyt b5 (Sf9 expression); assay type: in vitro ADME
T2 construct: made in house; host or cells: Sf9 insect cells
Protocol: In order to determine whether OR and cyt b5 are the reductases of BYZX, OR and cyt b5 were expressed individually and together in our previous method using insect cell expression system, Sf9 cell line, [14]. The incubation method was similar to what described above. The production of M2 was determined.

[7] = test system: chemical-induced learning and memory impairments; details: rodents; cited from earlier work
PC12 cells = details: cited from earlier work
CYP3A4 [8] = target: T3, CYP3A4 (Homo sapiens, UniProt P08684); test: Incubation and kinetics with recombinant human CYP3A4; assay type: in vitro ADME; set-up: purchased BD Gentest (Woburn, MA); host or cells: baculovirus-insect cells; details: for K m of N-des-ethylation: recombinant CYP3A4 0.04 mg/mL, BYZX fitted to allosteric sigmoidal kinetics
Protocol: as §4, §3
Target sequence in this assay (P08684 whole entry): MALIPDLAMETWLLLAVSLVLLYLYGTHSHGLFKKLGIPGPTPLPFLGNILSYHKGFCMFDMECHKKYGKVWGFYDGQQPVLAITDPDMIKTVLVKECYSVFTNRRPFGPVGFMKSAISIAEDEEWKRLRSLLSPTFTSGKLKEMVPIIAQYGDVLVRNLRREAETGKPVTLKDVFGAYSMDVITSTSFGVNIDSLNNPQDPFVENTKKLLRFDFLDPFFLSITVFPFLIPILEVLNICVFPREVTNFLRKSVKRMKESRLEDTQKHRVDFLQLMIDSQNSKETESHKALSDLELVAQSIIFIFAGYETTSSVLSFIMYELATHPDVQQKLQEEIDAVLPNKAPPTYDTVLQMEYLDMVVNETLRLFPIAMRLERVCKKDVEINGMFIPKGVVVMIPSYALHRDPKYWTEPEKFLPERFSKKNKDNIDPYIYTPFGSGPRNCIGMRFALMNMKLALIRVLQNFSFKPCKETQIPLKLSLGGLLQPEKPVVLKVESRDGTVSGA

CYP3A4 [9] = target: T3, CYP3A4; test: in vitro; details: pooled human liver microsomes, probe M2 20 µM (formation of M1)
Target sequence in this assay (P08684 2-503): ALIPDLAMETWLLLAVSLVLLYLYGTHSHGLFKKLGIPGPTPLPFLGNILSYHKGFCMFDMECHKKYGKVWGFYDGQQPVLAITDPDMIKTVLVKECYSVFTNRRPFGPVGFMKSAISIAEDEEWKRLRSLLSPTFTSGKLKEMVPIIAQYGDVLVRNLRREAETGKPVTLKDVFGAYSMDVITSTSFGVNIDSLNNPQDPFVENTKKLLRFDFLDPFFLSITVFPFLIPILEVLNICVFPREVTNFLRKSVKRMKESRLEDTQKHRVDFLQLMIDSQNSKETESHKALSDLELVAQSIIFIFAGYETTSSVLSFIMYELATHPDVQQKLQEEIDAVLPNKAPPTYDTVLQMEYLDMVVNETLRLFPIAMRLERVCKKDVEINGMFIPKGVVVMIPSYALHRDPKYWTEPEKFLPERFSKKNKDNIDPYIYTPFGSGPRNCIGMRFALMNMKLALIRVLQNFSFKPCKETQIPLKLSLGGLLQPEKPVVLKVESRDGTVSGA

Nn1nnc2ccccc21 [ABT, 1-aminobenzotriazole]
Effect on formation of desethyl metabolite M3 from BYZX (pooled HLMs): extensively suppressed | Effect on hydrogenation of BYZX to M2 (pooled HLMs): not significantly inhibited

O=c1oc2ccccc2c(O)c1Cc1c(O)c2ccccc2oc1=O [dicoumarol]
IC50 ([1]; 0.2 mg/mL protein, 20 min): 7.7 ± 1.2 µM | Effect on hydrogenation of BYZX (formation of M2) [2]: dramatic inhibitory effect | IC50 at 20 min [3]: 1.6 ± 1.3 µM

COc1ccc2c(c1)c(CC(=O)O)c(C)n2C(=O)c1ccc(Cl)cc1 [indomethacin]
IC50 at 20 min [3]: 18.8 ± 1 µM

CC(=O)C=Cc1ccccc1 [benzylideneacetone]
Effect on hydrogenation of BYZX (formation of M2) [2]: significantly suppressed

CCNCc1ccc(/C=C2\Cc3cc(OC)c(OC)cc3C2=O)cc1 [M3]
Further metabolism of M3 ([4]; human): could be further biotransformed into M1

CCN(CC)Cc1ccc(/C=C2\Cc3cc(OC)c(OC)cc3C2=O)cc1 [BYZX, (E)-2-(4-((diethylamino)methyl)benzylidene)-5,6-dimethoxy-2,3-dihydroinden-one]
Cl int of N-des-ethylation (M3 formation) (CYP2C8; recombinant CYP2C8): 1.59 A.U. | V max of N-des-ethylation (M3 formation) (CYP2C8; recombinant CYP2C8): 0.099±0.005 A.U. | K m of N-des-ethylation (CYP2C8): 62.1 ± 8.2 µM | K m of hydrogenation (M2 formation) ([4]; HLMs): 21.4 ± 1.4 µM | V max of hydrogenation (M2 formation) ([4]; HLMs): 0.252±0.008 nmol/min/mg protein | K m of N-des-ethylation [4]: 46.4 ± 5.9 µM | Cl int of N-des-ethylation (M3 formation) ([4]; human, microsomes): 2.39 A.U. | V max of N-des-ethylation (M3 formation) ([4]; human, pH 7.4): 0.111±0.008 A.U. | microsomal CLint ([4]; human, pH 7.4, HLMs, read-out: Cl int of hydrogenation (M2 formation)): 11.8 µL/min/mg | K m of hydrogenation in cytosol relative to HLMs ([5]; cytosol vs HLMs): about 2 times | Rate of hydrogenation (V max) in human liver cytosol relative to HLMs ([5]; cytosol vs HLMs): about 15 times | K m of hydrogenation (M2 formation) ([5]; human liver cytosol): 38.9 ± 2.5 µM | V max of hydrogenation (M2 formation) ([5]; human liver cytosol): 3.56±0.07 nmol/min/mg protein | Metabolism into M2 in S9 fraction of blank Sf9 cells ([6]; blank Sf9 cells S9): rapidly metabolized into M2 | Rate of formation of M2 in mixture of recombinant OR and cyt b5 ([6]; compared with blank Sf9 S9): significantly decreased | Effect on chemical-induced learning and memory impairments [7]: significantly improve | Effect on apoptosis induced by hydrogen peroxide (PC12 cells): protect | Cl int of N-des-ethylation (M3 formation) (CYP3A4 [8]; recombinant CYP3A4): 6.76 A.U. | V max of N-des-ethylation (M3 formation) (CYP3A4 [8]; recombinant CYP3A4): 3.3±0.4 A.U. | K m of N-des-ethylation (CYP3A4 [8]): 488.2 ± 160.2 µM

CC(C)(C)NC(=O)[C@H]1CC[C@H]2[C@@H]3CC[C@H]4NC(=O)C=C[C@]4(C)[C@H]3CC[C@]12C [finasteride]
Effect on hydrogenation of BYZX (formation of M2) ([1]; 20 µM finasteride): no inhibitory effect

CC(=O)N1CCN(c2ccc(OCC3COC(Cn4ccnc4)(c4ccc(Cl)cc4Cl)O3)cc2)CC1 (stereo not shown) [ketoconazole]
IC50 (CYP3A4 [9]): 9.8 ± 1.2 µM

CCN(CC)Cc1ccc(CC2Cc3cc(OC)c(OC)cc3C2=O)cc1 (stereo not shown) [M2]
microsomal CLint (CYP2C8; human, recombinant human CYP2C8 (baculovirus-insect cell-expressed), recombinant CYP2C8, read-out: Cl int of N-des-ethylation (M1 formation)): 2.58 µL/min/mg | V max of N-des-ethylation (M1 formation) (CYP2C8; recombinant CYP2C8): 0.370±0.024 nmol/min/mg protein | K m of N-des-ethylation (CYP2C8): 143.2 ± 17.7 µM | V max of N-des-ethylation (M1 formation) ([4]; HLMs): 0.209±0.010 nmol/min/mg protein | K m of N-des-ethylation [4]: 105.7 ± 10.9 µM | microsomal CLint ([4]; human, pH 7.4, HLMs, read-out: Cl int of N-des-ethylation (M1 formation)): 1.98 µL/min/mg | microsomal CLint (CYP3A4 [8]; human, recombinant human CYP3A4 (baculovirus-insect cell-expressed), recombinant CYP3A4, read-out: Cl int of N-des-ethylation (M1 formation)): 6.01 µL/min/mg | V max of N-des-ethylation (M1 formation) (CYP3A4 [8]; recombinant CYP3A4): 0.392±0.016 nmol/min/mg protein | K m of N-des-ethylation (CYP3A4 [8]): 65.2 ± 7.2 µM | Cl int of CYP3A4 compared with that of CYP2C8 (M1 formation) (CYP3A4 [8]; recombinant CYP3A4 vs CYP2C8): over 2 folds
